Structures can show the parent of a compound that is named as a salt.
Molecular target: AaDOP2 (Aedes aegypti, UniProt H6D5H2)
Assay: AaDOP2 antagonist screen of the LOPAC1280 library (HEK-CRELuc-Aadop2 cells, luminescence)
Type: cell-based
Details: not given

Sequence of AaDOP2 (H6D5H2 1-476): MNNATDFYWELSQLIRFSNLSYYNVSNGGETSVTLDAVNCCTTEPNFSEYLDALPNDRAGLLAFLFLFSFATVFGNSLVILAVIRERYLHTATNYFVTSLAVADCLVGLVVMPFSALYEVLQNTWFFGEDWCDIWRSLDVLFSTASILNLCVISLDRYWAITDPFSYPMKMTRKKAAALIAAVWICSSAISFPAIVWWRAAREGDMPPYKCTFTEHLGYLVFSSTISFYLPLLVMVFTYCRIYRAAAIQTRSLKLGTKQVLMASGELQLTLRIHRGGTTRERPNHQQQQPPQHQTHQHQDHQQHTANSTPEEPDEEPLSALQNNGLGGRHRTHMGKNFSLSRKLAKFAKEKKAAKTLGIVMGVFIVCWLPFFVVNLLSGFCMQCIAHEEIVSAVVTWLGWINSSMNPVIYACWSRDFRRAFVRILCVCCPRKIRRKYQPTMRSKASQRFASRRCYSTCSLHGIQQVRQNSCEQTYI

Going from C[Se]C[C@H](N)C(=O)O.Cl [Compound 792, Se-(methyl)selenocysteine hydrochloride] to Cc1[nH]c2ccc(O)cc2c1CCN.O=C(O)/C=C\C(=O)O [Compound 818, 2-Methyl-5-hydroxytryptamine maleate], the “Compound effect (percent receptor signaling in presence of test compound, relative lux units relative to the SCH23390 control)” value falls from 129 to 102.

Going from Br.COc1ccc(-c2ccc(=N)n(CCCC(=O)O)n2)cc1 [Compound 1132, SR-95531] to CN1CCC(c2c[nH]c3ccc(O)cc23)CC1.O=C(O)/C=C\C(=O)O [Compound 213, BRL 54443 maleate], the “Compound effect (percent receptor signaling in presence of test compound, relative lux units relative to the SCH23390 control)” value falls from 101 to 80.

First: Br.CCCN(CCC)[C@@H]1CCc2cccc(O)c2C1 [Compound 624, R-(+)-8-Hydroxy-DPAT hydrobromide]
Second: CN1CCN(C2=Nc3ccccc3Oc3ccc(Cl)cc32)CC1 [Compound 720, Loxapine succinate]
The “Compound effect (percent receptor signaling in presence of test compound, relative lux units relative to the SCH23390 control)” value of the first is higher: 89 for the first, 3 for the second.

First: COc1cc(Cc2cnc(N)nc2N)cc(OC)c1OC [Compound 1208, Trimethoprim]
Second: N[C@@H](CS(=O)O)C(=O)O [Compound 259, L-Cysteinesulfinic Acid]
The “Compound effect (percent receptor signaling in presence of test compound, relative lux units relative to the SCH23390 control)” value of the first is lower: 92 for the first, 116 for the second.

Going from O=C1OC(=O)[C@H]2[C@@H]1[C@@H]1CC[C@H]2O1 [Compound 875, Norcantharidin] to “(-)-Bicuculline methbromide, 1(S), 9(R) [Compound 202]”, the “Compound effect (percent receptor signaling in presence of test compound, relative lux units relative to the SCH23390 control)” value rises from 76 to 94.

First: NS 521 oxalate [Compound 869]
Second: NCC(=O)NCCC(c1ccccc1)c1ccccc1 [Compound 545, N-(3,3-Diphenylpropyl)glycinamide]
The “Compound effect (percent receptor signaling in presence of test compound, relative lux units relative to the SCH23390 control)” value of the first is lower: 75 for the first, 105 for the second.

First: CC(=O)[C@H]1CC[C@H]2[C@@H]3CC=C4C[C@@H](OS(=O)(=O)[O-])CC[C@]4(C)[C@H]3CC[C@]12C.[Na+] [Compound 1017, Pregnenolone sulfate sodium]
Second: CC(=O)O[C@]1(C(C)=O)CC[C@H]2[C@@H]3C=C(Cl)C4=CC(=O)[C@@H]5C[C@@H]5[C@]4(C)[C@H]3CC[C@@]21C [Compound 247, Cyproterone acetate]
The “Compound effect (percent receptor signaling in presence of test compound, relative lux units relative to the SCH23390 control)” value of the first is lower: 107 for the first, 115 for the second.

Compared with N[C@@H](CCC(=O)N[C@@H](CSN=O)C(=O)NCC(=O)O)C(=O)O [Compound 850, S-Nitrosoglutathione], CCCCCCCCCCCCCCCCCCNC(=O)OCC(COP(=O)([O-])OCC[n+]1ccsc1)OC (stereo not drawn) [Compound 1114, CV-3988] is higher in “Compound effect (percent receptor signaling in presence of test compound, relative lux units relative to the SCH23390 control)” value: 100 for the first, 101 for the second.

First: CCCN(CCC)C1Cc2cc(OC)c(OC)cc2C1.O=C(O)/C=C\C(=O)O [Compound 1249, U-99194A maleate]
Second: N#CCCN.N#CCCN.O=C(O)/C=C/C(=O)O [Compound 38, 3-Aminopropionitrile fumarate]
The “Compound effect (percent receptor signaling in presence of test compound, relative lux units relative to the SCH23390 control)” value of the first is lower: 97 for the first, 100 for the second.

Compared with CCOC(=O)N1CCC(=C2c3ccc(Cl)cc3CCc3cccnc32)CC1 [Compound 716, Loratadine], N=c1ccn2c(n1)O[C@H]1[C@H](O)[C@@H](CO)O[C@H]12 [Compound 95, Ancitabine hydrochloride] is higher in “Compound effect (percent receptor signaling in presence of test compound, relative lux units relative to the SCH23390 control)” value: 88 for the first, 119 for the second.

Compared with N[C@@H]1C[C@H]1c1ccccc1 [Compound 982, Tranylcypromine hydrochloride], COC(=O)[C@@H](N)Cc1ccc(O)c(O)c1.Cl [Compound 364, L-3,4-Dihydroxyphenylalanine methyl ester hydrochloride] is higher in “Compound effect (percent receptor signaling in presence of test compound, relative lux units relative to the SCH23390 control)” value: 73 for the first, 90 for the second.

Going from O=C(O)c1cc(=O)c2ccccc2[nH]1 [Compound 688, Kynurenic acid] to COC(=O)c1cc2c(cn1)[nH]c1ccccc12 [Compound 501, Methyl beta-carboline-3-carboxylate], the “Compound effect (percent receptor signaling in presence of test compound, relative lux units relative to the SCH23390 control)” value rises from 99 to 118.

First: CN(CCOc1ccc(C[C@H](Nc2ccccc2C(=O)c2ccccc2)C(=O)O)cc1)c1ccccn1 [Compound 554, GW1929]
Second: NC(CCCCCP(=O)(O)O)C(=O)O (racemic) [Compound 57, (±)-2-Amino-7-phosphonoheptanoic acid]
The “Compound effect (percent receptor signaling in presence of test compound, relative lux units relative to the SCH23390 control)” value of the first is higher: 131 for the first, 93 for the second.

Compared with Nc1nc(N)c2nc(-c3ccccc3)c(N)nc2n1 [Compound 1168, Triamterene], CCCn1c(=O)[nH]c(=O)c2[nH]cnc21 [Compound 955, 3-n-Propylxanthine] is lower in “Compound effect (percent receptor signaling in presence of test compound, relative lux units relative to the SCH23390 control)” value: 115 for the first, 93 for the second.

First: CC(COc1ccccc1)N(CCCl)Cc1ccccc1 (stereo not drawn) [Compound 200, Phenoxybenzamine hydrochloride]
Second: O=C(O)c1cc[c]([Hg][Cl])cc1 [Compound 276, 4-Chloromercuribenzoic acid]
The “Compound effect (percent receptor signaling in presence of test compound, relative lux units relative to the SCH23390 control)” value of the first is lower: 86 for the first, 96 for the second.

Going from CC[C@]1(O)C[C@@H]2CN(CCc3c([nH]c4ccccc34)[C@@](C(=O)OC)(c3cc4c(cc3OC)N(C)[C@H]3[C@@](O)(C(=O)OC)[C@H](OC(C)=O)[C@]5(CC)C=CCN6CC[C@]43[C@@H]65)C2)C1.O=S(=O)(O)O [Compound 1251, Vinblastine sulfate salt] to CC(=O)OC(C)C[N+](C)(C)C.[Cl-] (stereo not drawn) [Compound 35, Acetyl-beta-methylcholine chloride], the “Compound effect (percent receptor signaling in presence of test compound, relative lux units relative to the SCH23390 control)” value rises from 118 to 127.

Going from CCCc1c(OCCCOc2ccc(OCC(=O)O)cc2)ccc(C(C)=O)c1O [Compound 614, L-165,041] to CCN1C[C@]2(C)CC[C@H](O)[C@]34C1[C@@H](C[C@H]23)[C@@]1(O)C[C@H](OC)[C@H]2C[C@@H]4[C@@H]1[C@H]2O [Compound 690, Karakoline], the “Compound effect (percent receptor signaling in presence of test compound, relative lux units relative to the SCH23390 control)” value falls from 116 to 101.

Compared with CC1COc2c(N3CCN(C)CC3)c(F)cc3c(=O)c(C(=O)O)cn1c23 (stereo not drawn) [Compound 907, Ofloxacin], CS(=O)(=O)Nc1ccc([N+](=O)[O-])cc1Oc1ccccc1 [Compound 838, Nimesulide] is lower in “Compound effect (percent receptor signaling in presence of test compound, relative lux units relative to the SCH23390 control)” value: 92 for the first, 88 for the second.

First: N[C@@H](CCCC(=O)O)C(=O)O [Compound 82, L-2-aminoadipic acid]
Second: C[C@]12C[C@H](O)[C@H]3[C@@H](CCC4=CC(=O)CC[C@@]43C)[C@@H]1CC[C@@H]2C(=O)CO [Compound 238, Corticosterone]
The “Compound effect (percent receptor signaling in presence of test compound, relative lux units relative to the SCH23390 control)” value of the first is higher: 96 for the first, 87 for the second.

Going from CCOC(=O)c1ncn2c1CN(C)C(=O)c1cc(F)ccc1-2 [Compound 523, Flumazenil] to COc1cc2nc(N3CCN(C(=O)OCc4ccccc4)[C@H](C(=O)NC(C)(C)C)C3)nc(N)c2cc1OC [Compound 1167, L-765,314], the “Compound effect (percent receptor signaling in presence of test compound, relative lux units relative to the SCH23390 control)” value falls from 124 to 112.

Same assay, conditions: 10 µM compound, 300 nM dopamine, 2 hr; hit = compound effect <20

Compared with C[C@H]1C[C@H]2[C@@H]3CCC4=CC(=O)C=C[C@]4(C)[C@@]3(Cl)[C@@H](O)C[C@]2(C)[C@@]1(O)C(=O)CO [Compound 152, Beclomethasone], N[C@@H](Cn1ccc(=O)[nH]c1=O)C(=O)O [Compound 1266, S(-)-Willardiine] is higher in “Compound effect (percent receptor signaling in presence of test compound, relative lux units relative to the SCH23390 control)” value: 97% for the first, 99% for the second.

First: N#Cc1cc2nc([O-])c([O-])nc2cc1[N+](=O)[O-].[Na+].[Na+] [Compound 351, CNQX disodium]
Second: L-Leucinethiol, oxidized dihydrochloride [Compound 709]
The “Compound effect (percent receptor signaling in presence of test compound, relative lux units relative to the SCH23390 control)” value of the first is higher: 91% for the first, 81% for the second.

Compared with C/C=C1\C(=O)C[C@H]2[C@@H]3CCC4=CC(=O)CC[C@]4(C)[C@H]3CC[C@]12C [Compound 420, (Z)-Gugglesterone], CC(C)C[C@H](NP(=O)([O-])O[C@H]1O[C@H](C)[C@@H](O)[C@H](O)[C@@H]1O)C(=O)N[C@@H](Cc1c[nH]c2ccccc12)C(=O)[O-].[Na+].[Na+] [Compound 1054, Phosphoramidon disodium] is higher in “Compound effect (percent receptor signaling in presence of test compound, relative lux units relative to the SCH23390 control)” value: 91% for the first, 104% for the second.

Compared with NN=C(N)N.NN=C(N)N.O=S(=O)(O)O [Compound 77, Aminoguanidine hemisulfate], CN1C[C@H](O)[C@@H](O)[C@H](O)[C@H]1CO [Compound 742, N-Methyl-1-deoxynojirimycin] is lower in “Compound effect (percent receptor signaling in presence of test compound, relative lux units relative to the SCH23390 control)” value: 107% for the first, 101% for the second.

First: Br.Oc1cc2c(c(Cl)c1O)CCNCC2c1ccccc1 (racemic) [Compound 1133, (±)-6-Chloro-PB hydrobromide]
Second: CNc1cc(NS(=O)(=O)c2ccc(N)cc2)nc(NC)n1.Cl.Cl [Compound 1073, Ro 04-6790 dihydrochloride]
The “Compound effect (percent receptor signaling in presence of test compound, relative lux units relative to the SCH23390 control)” value of the first is lower: 99% for the first, 135% for the second.

Same assay, conditions: read-out: % of the SCH23390 effect (percent inhibition of receptor response relative to the SCH23390 control)

CN1CCN(C2=Nc3ccccc3Oc3ccc(Cl)cc32)CC1 [Compound 720, Loxapine succinate] was tested, and the inhibition at 10 µM was 97%.
